From US20220411785A1, “LIBRARY OF BARCODED EXTRACELLULAR VESICLES” (The University of Tokyo, priority 2019, published 2022)

System: HEK293T cells expressing CD63-nanoLuc
Assay: EV secretion level after GSK-A1 (nanoLuc luminescence assay / nanoparticle tracking analysis)
Type: cell-based
Conditions: addition of GSK-A1; control without GSK-A1 set as 1; nluc activity in culture supernatant or NTA
Experimental: A PI4KA inhibitor, GSK-A1, was administered to HEK293T cells expressing CD63-nanoLuc (pDB30), and the amount of secreted extracellular vesicles was measured by luminescence assay (Promega Corporation, Nanoglo luciferase assay system) that measures the nluc activity in a culture supernatant or by nanoparticle tracking analysis (NTA) using Nanosight (Malvern Panalytical Ltd.). As a control, the same experiment was performed without administering GSK-A1, and the EV secretion level at each GSK-A1 concentration was calculated by setting the EV secretion level of the control as 1.

Question: COc1ncc(-c2ccc3nc(N)n(-c4ccc(N5CCOCC5)cc4)c3c2)cc1S(=O)(=O)Nc1ccccc1F [GSK-A1, 5-(2-amino-1-(4-morpholinophenyl)-1H-benzo[d]imidazol-6-yl)-N-(2-fluorophenyl)-2-methoxypyridine-3-sulfonamide] was tested. Which “secretion level of a CD63 positive extracellular vesicle” value did it give?
Answer: increased
